Data as given in patent US7030246B2, “Tetrahydroquinoline derivatives as stat6-modulators, preparation and use thereof” (Astrazeneca AB, priority 2001, dated 2006).

These molecules were tested on STAT6 signaling pathway (assay: Inhibition of STAT6-driven reporter gene activity (IL-4 induced luciferase in transfected U937 cells)). Conditions: U-937; U937 cells stably transfected with IL-4 responsive luciferase reporter; 10 ng/ml recombinant human IL-4, 4–5 h; compound added 5 min before IL-4; read-out: IC50 (concentration of compound giving 50 percent inhibition of the luciferase response to addition of IL-4).
Assay type: cell-based
Source text: The ability of the compounds described herein to inhibit STAT6 signaling pathway is manifested in their ability to inhibit STAT6 driven reporter gene activity.
The cytokine-responsive human cell line U937 were transfected with a reporter gene plasmid consisting of an interluekin 4 (IL-4) responsive promoter driving the heterologous firefly gene for luciferase. The reporter gene plasmid also contained a gene for neomycin resistance. The IL-4 responsive promoter were constructed by four oligomerized combined C/BEPβ and STAT6 binding sites with the nucleotide sequence […] in close contact with a TATA-box. Cells with a stable integration of the reporter gene plasmid were selected by cultivation in neomycin. Such transfected cells were used for IL-4 induction by adding 10 ng/ml recombinant human IL-4 to 0.5–1×10^6 cells per ml. IL-4 induction were carried out for 4–5 h. Thereafter the cells were lysed and luciferase activity determined by using standard techniques. Numbers measured are the mean fold induction (fold induction for U937 is defined as the luciferase response in an IL-4 treated U937 cell sample divided by the luciferase response in an untreated U937 cell sample). Typically, IL-4 stimulation gave 15–20 fold induction of the luciferase response. Compounds were added 5 min before IL-4 when tested in the reporter gene assay. Compound effect was expressed as the concentration of compound giving 50 percent inhibition (IC50) of the luciferase response to addition of IL-4.

IC50 | SMILES
800 nM | CC(=O)N1c2ccccc2[C@H](Nc2ccc(C)cc2)C[C@@H]1C (relative stereo) [No 27 Table I, (2S*,4R*)-1-Acetyl-2-methyl-N-(4-methylphenyl)-1,2,3,4-tetrahydro-4-quinolinamine]
430 nM | CC(=O)N1c2ccccc2[C@H](Nc2ccc(C#N)cc2)C[C@@H]1C (relative stereo) [No 36 Table I, 4-{[(2S*,4R*)-1-acetyl-2-methyl-1,2,3,4-tetrahydro-4-quinolinyl]amino}benzonitrile]
180 nM | CC(=O)N1c2ccc(I)cc2[C@H](Nc2ccccc2)C[C@@H]1C (relative stereo) [No 74 Table I, (2S*,4R*)-1-Acetyl-1,2,3,4-tetrahydro-6-iodo-2-methyl-N-phenyl-4-quinolinamine]
